# Assay: Compound solubility in water
# Format: physicochemical
row,Structure (SMILES),solubility [µg/mL]
1,Cc1cc(-c2ccc(F)nc2)nc2c(C(=O)NC(C3CC3)C(F)(F)F)cnn12 (stereo not shown) [III-84],0.8
2,Cc1cc(NC2CC2)nc2c(C(=O)N[C@@H](C)C3CC3)cnn12 [III-166],10.9
3,Cc1cc(-c2cccnc2)nc2c(C(=O)N[C@H](C3CC3)C(F)(F)F)cnn12 [III-88],14.8
4,Cc1cc(-c2ccc(F)c(C(N)=O)c2)nc2c(C(=O)NC(C3CC3)C(F)(F)F)cnn12 (stereo not shown) [III-162],1
5,Cc1cc(-c2cccnc2)nc2c(C(=O)NC(C)(C)C3CC3)cnn12 [III-18],17.4
6,Cc1cc(-c2cccc(-c3ncccn3)n2)nc2c(C(=O)NC(C3CC3)C(F)(F)F)cnn12 (stereo not shown) [III-175],1
7,Cc1cc(-c2cccnc2)nc2c(C(=O)NC(C3CC3)C(F)(F)F)cnn12 (stereo not shown) [III-35],6.5
8,Cc1cc(N2CCCCC2)nc2c(C(=O)NC(C)C3CC3)cnn12 (stereo not shown) [III-31],43.5
9,Cc1cc(N2CCC(F)(F)C2)nc2c(C(=O)NC(C3CC3)C(F)(F)F)cnn12 (stereo not shown) [III-67],1.9
10,Cc1cc(-c2cccc(Cl)n2)nc2c(C(=O)NC(C)(C)C3CC3)cnn12 [III-62],1.2
11,COc1cc(C#N)cc(-c2cc(C)n3ncc(C(=O)N[C@@H](C)C4CC4)c3n2)c1 [III-129],0.02
12,Cc1cc(-c2cncc(Cl)c2)nc2c(C(=O)NC(C3CC3)C(F)(F)F)cnn12 (stereo not shown) [III-119],0.08
13,Cc1cc(-c2cccc(C#N)c2)nc2c(C(=O)N[C@@H](C)C3CC3)cnn12 [III-70],2.1
14,Cc1cc(-c2ccc(F)c(C#N)c2)nc2c(C(=O)NC(C3CC3)C(F)(F)F)cnn12 (stereo not shown) [III-158],0.3
15,COc1c(F)cccc1-c1cc(C)n2ncc(C(=O)NC(C3CC3)C(F)(F)F)c2n1 (stereo not shown) [III-139],0.1
16,Cc1cc(-c2cncc(F)c2)nc2c(C(=O)NC(C3CC3)C(F)(F)F)cnn12 (stereo not shown) [III-125],3.4
17,Cc1cc(-c2cnccc2F)nc2c(C(=O)NC(C)C(F)(F)F)cnn12 (stereo not shown) [III-199],7.8
18,Cc1cc(-c2ccccn2)nc2c(C(=O)NC(C3CC3)C(F)(F)F)cnn12 (stereo not shown) [III-36],0.4
19,Cc1cc(-c2ccoc2)nc2c(C(=O)NC(C3CC3)C(F)(F)F)cnn12 (stereo not shown) [III-187],0.5
20,Cc1cc(-c2cncc(Cl)c2)nc2c(C(=O)N[C@@H](C3CC3)C(F)(F)F)cnn12 [III-121],0.7
21,Cc1cc(N2CCCCC2)nc2c(C(=O)NC(C)(C)C3CC3)cnn12 [III-23],6.8
22,Cc1cc(-c2cccnc2)nc2c(C(=O)N[C@H]3CC[C@H](OC(C)(C)C)CC3)cnn12 [III-38],18.2
23,Cc1cc(C)n2ncc(C(=O)N[C@@H](C)C3CC3)c2n1 [III-1],27
24,Cc1cc(-c2ccc(Cl)nc2)nc2c(C(=O)NC(C3CC3)C(F)(F)F)cnn12 (stereo not shown) [III-116],1

# Now from value to molecule:
row,solubility [µg/mL],Structure (SMILES)
1,0.4,Cc1cc(-c2occc2C#N)nc2c(C(=O)NC(C3CC3)C(F)(F)F)cnn12 (stereo not shown) [III-250]
2,0.5,Cc1cc(-c2sccc2C#N)nc2c(C(=O)N[C@H](C)C3CC3)cnn12 [III-302]
3,0.3,Cc1ncc(-c2cc(C)n3ncc(C(=O)N[C@H](C4CC4)C(F)(F)F)c3n2)cc1F [III-380]
4,4.9,COc1cncc(-c2cc(C)n3ncc(C(=O)NC(C)C(F)(F)F)c3n2)c1 (stereo not shown) [III-270]
5,5.9,Cc1cc(-c2cccc(Cl)n2)nc2c(C(=O)N[C@@H](C)C(F)(F)F)cnn12 [III-236]
6,0.7,Cc1cc(-c2ccc(F)cc2)nc2c(C(=O)N[C@H](C)C(F)(F)F)cnn12 [III-359]
7,1,Cc1nc(-c2cc(C)n3ncc(C(=O)N[C@H](C4CC4)C(F)(F)F)c3n2)oc1C [III-331]
8,0.6,Cc1cc(-c2ccccc2C#N)nc2c(C(=O)N[C@@H](C)C(F)(F)F)cnn12 [III-213]
9,0.2,Cc1cc(N2C[C@H](c3ccccc3)OC2=O)nc2c(C(=O)NC(C3CC3)C(F)(F)F)cnn12 (stereo partly shown) [III-314]
10,0.6,Cc1cc(-c2cc(F)c3c(c2)OCO3)nc2c(C(=O)NC(C)C(F)(F)F)cnn12 (stereo not shown) [III-294]
11,0.7,Cc1cc(-c2ccns2)nc2c(C(=O)NC(C3CC3)C(F)(F)F)cnn12 (stereo not shown) [III-411]
12,0.6,Cc1ncc(-c2cc(C)n3ncc(C(=O)N[C@H](C4CC4)C(F)(F)F)c3n2)o1 [III-247]
13,0.09,CCc1cc(-c2ccccn2)nc2c(C(=O)NC(C)(C)C(F)(F)F)cnn12 [III-407]
14,6.2,Cc1cncc(-c2cc(C)n3ncc(C(=O)NC(C)C(F)(F)F)c3n2)c1 (stereo not shown) [III-282]
15,1.1,Cc1cc(-c2sccc2C#N)nc2c(C(=O)N[C@@H](C)C3CC3)cnn12 [III-301]
16,3.3,Cc1cc(N2CCC(C)(C)C2=O)nc2c(C(=O)NC(C3CC3)C(F)(F)F)cnn12 (stereo not shown) [III-328]
17,2.4,Cc1cc(N2CCNC2=O)nc2c(C(=O)NC(C3CC3)C(F)(F)F)cnn12 (stereo not shown) [III-228]
18,6,Cc1cc(-c2cccc(C(=O)N(C)C)c2)nc2c(C(=O)NC(C3CC3)C(F)(F)F)cnn12 (stereo not shown) [III-413]
19,1.5,Cc1cc(-c2cc(C)n3ncc(C(=O)N[C@H](C4CC4)C(F)(F)F)c3n2)on1 [III-343]

# Reference: patent publication US9840510B1, “Pyrazolo[1,5-a]pyrimidinyl carboxamide compounds and their use in the treatment of medical disorders” (Lysosomal Therapeutics Inc., priority 2016, dated 2017)
